Reference: PubChem BioAssay AID328 (DTP/NCI, 2004)
“And” between values parts separate entries of the source, which are not always exact repeats. Equal values may be shown once. Toxic doses and inconclusive results are not listed.

System: BDF1 mice, P388 leukemia ip, median survival T/C
Experiment: NCI In Vivo Anticancer Drug Screen. Data for tumor model P388 Leukemia (intraperitoneal) in B6D2F1 (BDF1) mice
Conditions: endpoint: median survival time, higher = longer survival
Method in brief: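 Compound-treated tumour-bearing mice were compared with vehicle-treated controls. Survival was recorded, and the value is the treated-group measurement divided by the control-group measurement (T/C).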

[1] = dose: 50.0 mg/kg/injection, schedule: Q01DX009 (ip), vehicle: saline
[2] = dose: 100.0 mg/kg/injection, schedule: Q01DX009 (ip), vehicle: saline
[3] = dose: 100.0 mg/kg/injection, schedule: Q04DX003 (ip), vehicle: saline
[4] = dose: 25.0 mg/kg/injection, schedule: Q01DX009 (ip), vehicle: other
[5] = dose: 50.0 mg/kg/injection, schedule: Q01DX009 (ip), vehicle: other
[6] = dose: 50.0 mg/kg/injection, schedule: Q04DX003 (ip), vehicle: water
[7] = dose: 100.0 mg/kg/injection, schedule: Q01DX009 (ip), vehicle: other
[8] = dose: 100.0 mg/kg/injection, schedule: Q04DX003 (ip), vehicle: water
[9] = dose: 100.0 mg/kg/injection, schedule: Q01DX009 (ip), vehicle: saline with Tween-80
[10] = dose: 200.0 mg/kg/injection, schedule: Q01DX009 (ip), vehicle: saline with Tween-80
[11] = dose: 400.0 mg/kg/injection, schedule: Q01DX009 (ip), vehicle: saline with Tween-80
[12] = dose: 6.25 mg/kg/injection, schedule: Q01DX009 (ip), vehicle: saline with Tween-80
[13] = dose: 12.5 mg/kg/injection, schedule: Q01DX009 (ip), vehicle: saline with Tween-80
[14] = dose: 25.0 mg/kg/injection, schedule: Q01DX009 (ip), vehicle: saline with Tween-80
[15] = dose: 50.0 mg/kg/injection, schedule: Q01DX009 (ip), vehicle: saline with Tween-80

COc1cc(-c2ccc(N=Nc3c(O)c(C(=O)Nc4ccccc4OC)cc4ccccc34)c(OC)c2)ccc1N=Nc1c(O)c(C(=O)Nc2ccccc2OC)cc2ccccc12
T/C (dose: 100.0 mg/kg/injection, schedule: Q01DX005 (ip), vehicle: saline with Tween-80): 97 % of control
T/C (dose: 200.0 mg/kg/injection, schedule: Q01DX005 (ip), vehicle: saline with Tween-80): 92 % of control

COC(=O)C(C)CN1CCCCCC1 (stereo not given)
T/C [1]: 109 % of control
T/C [2]: 90 % of control
T/C (dose: 200.0 mg/kg/injection, schedule: Q01DX009 (ip), vehicle: saline): 109 % of control

O=C1NCCS1
T/C (dose: 100.0 mg/kg/injection, schedule: Q04DX003 (ip), vehicle: saline sonified): 90 % of control
T/C (dose: 200.0 mg/kg/injection, schedule: Q04DX003 (ip), vehicle: saline sonified): 90 % of control
T/C (dose: 400.0 mg/kg/injection, schedule: Q04DX003 (ip), vehicle: saline sonified): 95 % of control

O=S(=O)(O)CCN(CCO)CCO
T/C [2]: 87 % of control
T/C [3]: 109 % of control
T/C (dose: 200.0 mg/kg/injection, schedule: Q04DX003 (ip), vehicle: saline): 104 % of control
T/C (dose: 400.0 mg/kg/injection, schedule: Q01DX009 (ip), vehicle: saline): 87 % of control
T/C (dose: 400.0 mg/kg/injection, schedule: Q04DX003 (ip), vehicle: saline): 95 % of control

CCCCCCCC(=O)NN
T/C (dose: 3.12 mg/kg/injection, schedule: Q01DX009 (ip), vehicle: other): 96 % of control
T/C (dose: 6.25 mg/kg/injection, schedule: Q01DX009 (ip), vehicle: other): 98 % of control
T/C (dose: 12.5 mg/kg/injection, schedule: Q01DX009 (ip), vehicle: other): 99 % of control
T/C [4]: 117 % of control
T/C [5]: 117 % of control
T/C [6]: 91 % of control
T/C [7]: 92 % of control
T/C [8]: 124 % of control
T/C (dose: 200.0 mg/kg/injection, schedule: Q01DX009 (ip), vehicle: other): 97 % of control

S=C(NNC(=S)Nc1ccc(Cl)cc1)NNc1ccccc1
T/C [4]: 100 % of control
T/C [5]: 100 % of control
T/C (dose: 50.0 mg/kg/injection, schedule: Q04DX003 (ip), vehicle: Klucel (hydroxypropylcellulose) (HPC)): 104 % of control
T/C (dose: 100.0 mg/kg/injection, schedule: Q01DX001 (ip), vehicle: Klucel (hydroxypropylcellulose) (HPC)): 100 % of control
T/C [7]: 115 % of control
T/C (dose: 100.0 mg/kg/injection, schedule: Q04DX003 (ip), vehicle: Klucel (hydroxypropylcellulose) (HPC)): 100 % of control
T/C (dose: 150.0 mg/kg/injection, schedule: Q01DX009 (ip), vehicle: Klucel (hydroxypropylcellulose) (HPC)): 110 % of control
T/C (dose: 200.0 mg/kg/injection, schedule: Q01DX001 (ip), vehicle: Klucel (hydroxypropylcellulose) (HPC)): 90 % of control
T/C (dose: 200.0 mg/kg/injection, schedule: Q04DX003 (ip), vehicle: Klucel (hydroxypropylcellulose) (HPC)): 100 % of control
T/C (dose: 220.0 mg/kg/injection, schedule: Q01DX009 (ip), vehicle: Klucel (hydroxypropylcellulose) (HPC)): 110 % of control
T/C (dose: 225.0 mg/kg/injection, schedule: Q01DX009 (ip), vehicle: Klucel (hydroxypropylcellulose) (HPC)): 110 % of control
T/C (dose: 335.0 mg/kg/injection, schedule: Q01DX009 (ip), vehicle: Klucel (hydroxypropylcellulose) (HPC)): 110 % of control
T/C (dose: 400.0 mg/kg/injection, schedule: Q01DX001 (ip), vehicle: Klucel (hydroxypropylcellulose) (HPC)): 104 % of control

O=C1c2ccccc2C(=O)c2c(O)ccc(O)c21
T/C [9]: 104 % of control
T/C [10]: 109 % of control
T/C [11]: 109 % of control

O=[N+]([O-])/C=C/c1ccc(O)cc1
T/C [12]: 100 % of control
T/C [13]: 102 % of control
T/C [14]: 110 % of control
T/C [15]: 107 % of control

CCOC(=O)C(Cc1ccc(N(CCCl)CCCl)cc1)NC(=O)C(N)CO (stereo not given)
T/C (dose: 5.0 mg/kg/injection, schedule: Q04DX003 (ip), vehicle: water): 157 % of control
T/C (dose: 10.0 mg/kg/injection, schedule: Q04DX003 (ip), vehicle: water): 263 % of control
T/C (dose: 20.0 mg/kg/injection, schedule: Q04DX003 (ip), vehicle: water): 263 % of control
T/C (dose: 40.0 mg/kg/injection, schedule: Q04DX003 (ip), vehicle: water): 105 % of control

COc1cccc2c1C(=O)CC2
T/C (dose: 25.0 mg/kg/injection, schedule: Q01DX009 (ip), vehicle: Klucel (hydroxypropylcellulose) (HPC)): 100 % of control
T/C (dose: 50.0 mg/kg/injection, schedule: Q01DX009 (ip), vehicle: Klucel (hydroxypropylcellulose) (HPC)): 100 % of control
T/C (dose: 75.0 mg/kg/injection, schedule: Q04DX003 (ip), vehicle: Klucel (hydroxypropylcellulose) (HPC)): 100 % of control
T/C (dose: 100.0 mg/kg/injection, schedule: Q01DX009 (ip), vehicle: Klucel (hydroxypropylcellulose) (HPC)): 96 % of control
T/C (dose: 150.0 mg/kg/injection, schedule: Q04DX003 (ip), vehicle: Klucel (hydroxypropylcellulose) (HPC)): 95 % of control

Cc1ccc2c(c1)CCCN2C
T/C (dose: 25.0 mg/kg/injection, schedule: Q01DX009 (ip), vehicle: saline): 114 % of control
T/C [1]: 114 % of control
T/C (dose: 50.0 mg/kg/injection, schedule: Q04DX003 (ip), vehicle: saline): 104 % of control
T/C [3]: 104 % of control

CCNC(C)(C)C(SSS)c1ccco1 (stereo not given)
T/C (dose: 100.0 mg/kg/injection, schedule: Q04DX003 (ip), vehicle: gum acacia): 100 % of control and 116 % of control
T/C (dose: 134.0 mg/kg/injection, schedule: Q01DX009 (ip), vehicle: gum acacia): 100 % of control
T/C (dose: 200.0 mg/kg/injection, schedule: Q04DX003 (ip), vehicle: gum acacia): 109 % of control
T/C (dose: 400.0 mg/kg/injection, schedule: Q04DX003 (ip), vehicle: gum acacia): 91 % of control and 122 % of control

Cc1ccc(CC2NC(=O)NC2=O)cc1 (stereo not given)
T/C [12]: 104 % of control
T/C [13]: 88 % of control and 99 % of control
T/C [14]: 90 % of control and 98 % of control
T/C [15]: 98 % of control and 120 % of control
T/C (dose: 50.0 mg/kg/injection, schedule: Q04DX003 (ip), vehicle: saline with Tween-80): 122 % of control
T/C [9]: 87 % of control and 118 % of control
T/C (dose: 100.0 mg/kg/injection, schedule: Q04DX003 (ip), vehicle: saline with Tween-80): 122 % of control
T/C [10]: 111 % of control
T/C (dose: 200.0 mg/kg/injection, schedule: Q04DX003 (ip), vehicle: saline with Tween-80): 105 % of control
T/C [11]: 96 % of control
T/C (dose: 400.0 mg/kg/injection, schedule: Q04DX003 (ip), vehicle: saline with Tween-80): 105 % of control

CSc1ncc2cnccn12
T/C (dose: 12.5 mg/kg/injection, schedule: Q01DX009 (ip), vehicle: water): 105 % of control
T/C (dose: 25.0 mg/kg/injection, schedule: Q01DX009 (ip), vehicle: water): 96 % of control
T/C (dose: 25.0 mg/kg/injection, schedule: Q04DX003 (ip), vehicle: water): 100 % of control
T/C (dose: 50.0 mg/kg/injection, schedule: Q01DX009 (ip), vehicle: water): 100 % of control
T/C [6]: 104 % of control
T/C [8]: 95 % of control

O=C1CN(N2C(=O)CSC2C23CC4CC(CC(C4)C2)C3)C(=O)CN1c1ccccc1 (stereo not given)
T/C [15]: 92 % of control
T/C [9]: 92 % of control

CCOc1ccccc1NC(=O)c1ccc(Cl)cc1
T/C (dose: 100.0 mg/kg/injection, schedule: Q01DX001 (ip), vehicle: saline with Tween-80): 90 % of control
T/C (dose: 200.0 mg/kg/injection, schedule: Q01DX001 (ip), vehicle: saline with Tween-80): 90 % of control
T/C (dose: 400.0 mg/kg/injection, schedule: Q01DX001 (ip), vehicle: saline with Tween-80): 95 % of control

COc1ccc(Nc2cccc(Cl)c2)c(C(=O)O)c1
T/C (dose: 20.0 mg/kg/injection, schedule: Q01DX001 (ip), vehicle: Klucel (hydroxypropylcellulose) (HPC)): 122 % of control
T/C (dose: 40.0 mg/kg/injection, schedule: Q01DX001 (ip), vehicle: Klucel (hydroxypropylcellulose) (HPC)): 100 % of control
T/C (dose: 75.0 mg/kg/injection, schedule: Q01DX001 (ip), vehicle: Klucel (hydroxypropylcellulose) (HPC)): 104 % of control
T/C (dose: 150.0 mg/kg/injection, schedule: Q01DX001 (ip), vehicle: Klucel (hydroxypropylcellulose) (HPC)): 100 % of control
